Data published in patent publication US6525001B1, “Substituted pyrimidine and pyridine herbicides” (Mid-American Commercialization Corporation, priority 1997, dated 2003).

Assays:
Type in all cases: in vivo
[1] = system: ladysthumb smartweed (Polygonum persicaria); test: Test C
[2] = system: bermudagrass (Cynodon dactylon); test: Test E pre-/postemergence/post directed; set-up: key: 0 is no effect; 100 is complete control; settings: PREEMERGENCE
Description: (§1) Seeds, tubers, or plant parts of alexandergrass (Brachiaria plantaginea), annual bluegrass (Poa annua), arrowleaf sida (Sida rhombifolia), barnyardgrass (Echinochloa crus-galli), bermudagrass (Cynodon dactylon), citrus (Citrus sinensis), common chickweed (Stellaria media), common purslane (Portulaca oleracea), common ragweed (Ambrosia elatior), common groundsel (Senecio vulgaris), dallisgrass (Paspalum dilatatum), goosegrass (Eleusine indica), green foxtail (Setaria viridis), guineagrass (Panicum maximum), itchgrass (Rottboellia exaltata), johnson grass (Sorghum halepense), kochia (Kochia scoparia), large crabgrass (Digitaria sanguinalis), leafy spurge (Euphorbia esula), pitted morningglory (Ipomoea lacunosa), purple nutsedge (Cyperus rotundus), quackgrass (Agropyron repens), Russian thistle (Salsola kali), sandbur (Cenchrus echinatus), sourgrass (Trichachne insularis), Spanishneedles (Bidens bipinnata), sugarcane (Saccharum officinarum), surinam grass (Brachiaria decumbens) and tall mallow (Malva sylvestris) were planted into greenhouse pots of flats containing greenhouse planting medium. Plant species were grown grown in separate pots or individual compartments. Preemergence applications were made within one day of planting the seed or plant part. Postemergence applications were applied when the plants were in the two to four leaf stage (three to twenty cm).
(§2) Test chemicals were formulated in a non-phytotoxic solvent mixture which included a surfactant and applied preemergence to the soil surface, postemergence to the plants or as a post directed spray to plants and soil at the base of the target species. Untreated control plants and treated plants were placed in the greenhouse and visually evaluated for injury 13 to 21 days after herbicide application. Plant response ratings, summarized in Table E, are based on a 0 to 100 scale where 0 is no injury and 100 is complete control. A dash (−) response means no test result.

[3] = system: common groundsel (Senecio vulgaris); test: Test E pre-/postemergence/post directed; set-up: key: 0 is no effect; 100 is complete control; settings: PREEMERGENCE
Description: as §1, §2

[4] = system: common purslane (Portulaca oleracea); test: Test E pre-/postemergence/post directed; set-up: key: 0 is no effect; 100 is complete control
Description: as §1, §2

[5] = system: common ragweed (Ambrosia elatior); test: Test E pre-/postemergence/post directed; set-up: key: 0 is no effect; 100 is complete control; settings: PREEMERGENCE
Description: as §1, §2

[6] = system: dallisgrass (Paspalum dilatatum); test: Test E pre-/postemergence/post directed; set-up: key: 0 is no effect; 100 is complete control
Description: as §1, §2

[7] = system: goosegrass (Eleusine indica); test: Test E pre-/postemergence/post directed; set-up: key: 0 is no effect; 100 is complete control
Description: as §1, §2

[8] = system: guineagrass (Panicum maximum); test: Test E pre-/postemergence/post directed; set-up: key: 0 is no effect; 100 is complete control
Description: as §1, §2

[9] = system: large crabgrass (Digitaria sanguinalis); test: Test E pre-/postemergence/post directed; set-up: key: 0 is no effect; 100 is complete control; settings: PREEMERGENCE
Description: as §1, §2

[10] = system: sourgrass (Trichachne insularis); test: Test E pre-/postemergence/post directed; set-up: key: 0 is no effect; 100 is complete control
Description: as §1, §2

[11] = system: surinam grass (Brachiaria decumbens); test: Test E pre-/postemergence/post directed; set-up: key: 0 is no effect; 100 is complete control; settings: PREEMERGENCE
Description: as §1, §2

[12] = system: tall mallow (Malva sylvestris); test: Test E pre-/postemergence/post directed; set-up: key: 0 is no effect; 100 is complete control; settings: PREEMERGENCE
Description: as §1, §2

Cc1cnc(-n2ccc(C(F)(F)F)n2)nc1Cc1cccc(C(F)(F)F)c1 [Example 2, 5-methyl-4-[[3-(trifluoromethyl)phenyl]methyl]-2-[3-(trifluoromethyl)-1H-pyrazol-1-yl]pyrimidine]
5: Plant response rating, Guineagrass ([8]; POSTEMERGENCE, Rate 32 g/ha)
98: Plant response rating, Tall Mallow ([12]; Rate 32 g/ha)
95: Plant response rating, Dallisgrass ([6]; POSTEMERGENCE, Rate 500 g/ha) | Plant response rating, Goosegrass ([7]; POSTEMERGENCE, Rate 500 g/ha) | Plant response rating, Goosegrass ([7]; PREEMERGENCE, Rate 32 g/ha)
80: Plant response rating, Sourgrass ([10]; POSTEMERGENCE, Rate 500 g/ha)
30: Plant response rating, Ladysthumb ([1]; PREEMERGENCE, Rate 70 g/ha)
10: Plant response rating, Dallisgrass ([6]; POSTEMERGENCE, Rate 32 g/ha) | Plant response rating, Sourgrass ([10]; POSTEMERGENCE, Rate 32 g/ha)
60: Plant response rating, Goosegrass ([7]; POSTEMERGENCE, Rate 32 g/ha)
50: Plant response rating, Guineagrass ([8]; POSTEMERGENCE, Rate 125 g/ha) | Plant response rating, Guineagrass ([8]; POSTEMERGENCE, Rate 250 g/ha) | Plant response rating, Guineagrass ([8]; PREEMERGENCE, Rate 32 g/ha) | Plant response rating, Guineagrass ([8]; PREEMERGENCE, Rate 64 g/ha)
40: Plant response rating, Dallisgrass ([6]; POSTEMERGENCE, Rate 64 g/ha) | Plant response rating, Sourgrass ([10]; POSTEMERGENCE, Rate 250 g/ha)
20: Plant response rating, Sourgrass ([10]; POSTEMERGENCE, Rate 64 g/ha) | Plant response rating, Sourgrass ([10]; POSTEMERGENCE, Rate 125 g/ha)
100: Plant response rating, Bermudagrass ([2]; Rate 64 g/ha) | Plant response rating, Bermudagrass ([2]; Rate 125 g/ha) | Plant response rating, Bermudagrass ([2]; Rate 250 g/ha) | Plant response rating, Bermudagrass ([2]; Rate 500 g/ha) | Plant response rating, Com. groundsel ([3]; Rate 32 g/ha) | Plant response rating, Com. groundsel ([3]; Rate 64 g/ha) | Plant response rating, Com. groundsel ([3]; Rate 125 g/ha) | Plant response rating, Com. groundsel ([3]; Rate 250 g/ha) | Plant response rating, Com. groundsel ([3]; Rate 500 g/ha) | Plant response rating, Com. purslane ([4]; PREEMERGENCE, Rate 32 g/ha) | Plant response rating, Com. purslane ([4]; PREEMERGENCE, Rate 64 g/ha) | Plant response rating, Com. purslane ([4]; PREEMERGENCE, Rate 125 g/ha) | Plant response rating, Com. purslane ([4]; PREEMERGENCE, Rate 250 g/ha) | Plant response rating, Com. purslane ([4]; PREEMERGENCE, Rate 500 g/ha) | Plant response rating, Com. ragweed ([5]; Rate 32 g/ha) | Plant response rating, Com. ragweed ([5]; Rate 64 g/ha) | Plant response rating, Com. ragweed ([5]; Rate 125 g/ha) | Plant response rating, Com. ragweed ([5]; Rate 250 g/ha) | Plant response rating, Com. ragweed ([5]; Rate 500 g/ha) | Plant response rating, Dallisgrass ([6]; PREEMERGENCE, Rate 64 g/ha) | Plant response rating, Dallisgrass ([6]; PREEMERGENCE, Rate 125 g/ha) | Plant response rating, Dallisgrass ([6]; PREEMERGENCE, Rate 250 g/ha) | Plant response rating, Dallisgrass ([6]; PREEMERGENCE, Rate 500 g/ha) | Plant response rating, Goosegrass ([7]; PREEMERGENCE, Rate 64 g/ha) | Plant response rating, Goosegrass ([7]; PREEMERGENCE, Rate 125 g/ha) | Plant response rating, Goosegrass ([7]; PREEMERGENCE, Rate 250 g/ha) | Plant response rating, Goosegrass ([7]; PREEMERGENCE, Rate 500 g/ha) | Plant response rating, Guineagrass ([8]; PREEMERGENCE, Rate 125 g/ha) | Plant response rating, Guineagrass ([8]; PREEMERGENCE, Rate 250 g/ha) | Plant response rating, Large crabgrass ([9]; Rate 64 g/ha) | Plant response rating, Large crabgrass ([9]; Rate 125 g/ha) | Plant response rating, Large crabgrass ([9]; Rate 250 g/ha) | Plant response rating, Large crabgrass ([9]; Rate 500 g/ha) | Plant response rating, Sourgrass ([10]; PREEMERGENCE, Rate 32 g/ha) | Plant response rating, Sourgrass ([10]; PREEMERGENCE, Rate 64 g/ha) | Plant response rating, Sourgrass ([10]; PREEMERGENCE, Rate 125 g/ha) | Plant response rating, Sourgrass ([10]; PREEMERGENCE, Rate 250 g/ha) | Plant response rating, Sourgrass ([10]; PREEMERGENCE, Rate 500 g/ha) | Plant response rating, Surinam grass ([11]; Rate 125 g/ha) | Plant response rating, Surinam grass ([11]; Rate 250 g/ha) | Plant response rating, Surinam grass ([11]; Rate 500 g/ha) | Plant response rating, Tall Mallow ([12]; Rate 64 g/ha) | Plant response rating, Tall Mallow ([12]; Rate 125 g/ha) | Plant response rating, Tall Mallow ([12]; Rate 250 g/ha) | Plant response rating, Tall Mallow ([12]; Rate 500 g/ha)
65: Plant response rating, Com. purslane ([4]; POSTEMERGENCE, Rate 32 g/ha) | Plant response rating, Com. purslane ([4]; POSTEMERGENCE, Rate 64 g/ha) | Plant response rating, Com. purslane ([4]; POSTEMERGENCE, Rate 125 g/ha)
70: Plant response rating, Com. purslane ([4]; POSTEMERGENCE, Rate 250 g/ha) | Plant response rating, Com. purslane ([4]; POSTEMERGENCE, Rate 500 g/ha) | Plant response rating, Dallisgrass ([6]; POSTEMERGENCE, Rate 125 g/ha)
90: Plant response rating, Dallisgrass ([6]; POSTEMERGENCE, Rate 250 g/ha) | Plant response rating, Dallisgrass ([6]; PREEMERGENCE, Rate 32 g/ha) | Plant response rating, Goosegrass ([7]; POSTEMERGENCE, Rate 250 g/ha) | Plant response rating, Guineagrass ([8]; POSTEMERGENCE, Rate 500 g/ha)
75: Plant response rating, Goosegrass ([7]; POSTEMERGENCE, Rate 64 g/ha)

Cc1cnc(-c2ccc(C(F)(F)F)cc2)nc1Cn1ccc(C(F)(F)F)n1 [compound 9]
20: Plant response rating, Ladysthumb ([1]; POSTEMERGENCE, Rate 35 g/ha) | Plant response rating, Dallisgrass ([6]; POSTEMERGENCE, Rate 250 g/ha) | Plant response rating, Guineagrass ([8]; PREEMERGENCE, Rate 32 g/ha)
100: Plant response rating, Bermudagrass ([2]; Rate 125 g/ha) | Plant response rating, Bermudagrass ([2]; Rate 250 g/ha) | Plant response rating, Com. groundsel ([3]; Rate 64 g/ha) | Plant response rating, Com. groundsel ([3]; Rate 125 g/ha) | Plant response rating, Com. groundsel ([3]; Rate 250 g/ha) | Plant response rating, Com. purslane ([4]; PREEMERGENCE, Rate 32 g/ha) | Plant response rating, Com. purslane ([4]; PREEMERGENCE, Rate 64 g/ha) | Plant response rating, Com. purslane ([4]; PREEMERGENCE, Rate 125 g/ha) | Plant response rating, Com. purslane ([4]; PREEMERGENCE, Rate 250 g/ha) | Plant response rating, Com. ragweed ([5]; Rate 64 g/ha) | Plant response rating, Com. ragweed ([5]; Rate 250 g/ha) | Plant response rating, Dallisgrass ([6]; PREEMERGENCE, Rate 64 g/ha) | Plant response rating, Dallisgrass ([6]; PREEMERGENCE, Rate 125 g/ha) | Plant response rating, Dallisgrass ([6]; PREEMERGENCE, Rate 250 g/ha) | Plant response rating, Goosegrass ([7]; PREEMERGENCE, Rate 64 g/ha) | Plant response rating, Goosegrass ([7]; PREEMERGENCE, Rate 125 g/ha) | Plant response rating, Goosegrass ([7]; PREEMERGENCE, Rate 250 g/ha) | Plant response rating, Guineagrass ([8]; PREEMERGENCE, Rate 250 g/ha) | Plant response rating, Large crabgrass ([9]; Rate 64 g/ha) | Plant response rating, Large crabgrass ([9]; Rate 125 g/ha) | Plant response rating, Large crabgrass ([9]; Rate 250 g/ha) | Plant response rating, Sourgrass ([10]; PREEMERGENCE, Rate 64 g/ha) | Plant response rating, Sourgrass ([10]; PREEMERGENCE, Rate 125 g/ha) | Plant response rating, Sourgrass ([10]; PREEMERGENCE, Rate 250 g/ha) | Plant response rating, Surinam grass ([11]; Rate 250 g/ha) | Plant response rating, Tall Mallow ([12]; Rate 32 g/ha) | Plant response rating, Tall Mallow ([12]; Rate 64 g/ha) | Plant response rating, Tall Mallow ([12]; Rate 125 g/ha) | Plant response rating, Tall Mallow ([12]; Rate 250 g/ha)
85: Plant response rating, Ladysthumb ([1]; PREEMERGENCE, Rate 70 g/ha) | Plant response rating, Dallisgrass ([6]; PREEMERGENCE, Rate 32 g/ha) | Plant response rating, Guineagrass ([8]; PREEMERGENCE, Rate 64 g/ha) | Plant response rating, Sourgrass ([10]; PREEMERGENCE, Rate 32 g/ha)
5: Plant response rating, Goosegrass ([7]; POSTEMERGENCE, Rate 125 g/ha)
90: Plant response rating, Ladysthumb ([1]; PREEMERGENCE, Rate 140 g/ha) | Plant response rating, Goosegrass ([7]; PREEMERGENCE, Rate 32 g/ha) | Plant response rating, Guineagrass ([8]; PREEMERGENCE, Rate 125 g/ha)
80: Plant response rating, Com. purslane ([4]; POSTEMERGENCE, Rate 125 g/ha) | Plant response rating, Com. purslane ([4]; POSTEMERGENCE, Rate 250 g/ha)
10: Plant response rating, Dallisgrass ([6]; POSTEMERGENCE, Rate 125 g/ha) | Plant response rating, Goosegrass ([7]; POSTEMERGENCE, Rate 250 g/ha) | Plant response rating, Sourgrass ([10]; POSTEMERGENCE, Rate 125 g/ha)
30: Plant response rating, Ladysthumb ([1]; POSTEMERGENCE, Rate 70 g/ha) | Plant response rating, Ladysthumb ([1]; POSTEMERGENCE, Rate 140 g/ha) | Plant response rating, Sourgrass ([10]; POSTEMERGENCE, Rate 250 g/ha)
35: Plant response rating, Ladysthumb ([1]; PREEMERGENCE, Rate 35 g/ha) | Plant response rating, Guineagrass ([8]; POSTEMERGENCE, Rate 125 g/ha) | Plant response rating, Guineagrass ([8]; POSTEMERGENCE, Rate 250 g/ha)
